The values that follow come from article PMC6543810, “Computational Identification of Novel Kir6 Channel Inhibitors” (Frontiers in Pharmacology, 2019).

Molecules are shown by their SMILES. Read-outs that look alike come from different tables or passages of the source.

One data set has as its target T1, Kir6.2/SUR2A S1020P (Rattus norvegicus, UniProt P70673).
T1 construct: expressed in transfected cells; host or cells: HEK293T
The data set is described as follows: Inside-out patch clamp, Cantú mutant S1020P SUR2A with Kir6.2. It is filed as cell-based. The following applies: S1020P SUR2A/Kir6.2, outward current. As for the experimental part:
(§1) Inside-out patch clamp electrophysiology was performed as described previously ([Harakalova et al., 2012]). In short, HEK293T cells were cultured on 10 mm glass coverslips and transfected with 0.16 μg of rat pCMV6-Kir6.2, 0.16 μg of rat pCMV6-SUR2A and 0.08 μg of pEGFP1 expression constructs. Measurements were performed using an AxoPatch 200B amplifier controlled by pClamp 9 software (Molecular Devices) at 22°C using a ramp protocol ranging from −100 to +100 mV in 5 s from a holding potential of −40 mV. The sampling rate was 50 kHz, filter frequency was 2 kHz. Bath solution contained 131 mM KCl, 1 mM EGTA, 7.2 mM K2HPO4, 2.8 mM KH2PO4, 1 mM MgCl2, and pH 7.20/KOH. The pipette solution contained 145 mM KCl, 1 mM CaCl2, 1 mM MgCl2, 5 mM HEPES, and pH 7.40/KOH. Pipette resistance was 1.5–3 MΩ. […] All measurements were performed within a timeframe of 8–10 min. Fractional block at −80 and +50 mV was determined by dividing current levels obtained with test compound containing solutions by current levels of control traces recorded in the absence of test compound. Statistics (unpaired Students t-tests (two tailed)) were performed using Kaleidagraph 4.0 software (Synergy Software, Reading, PA, United States).
(§2) Travoprost (MedChemExpress, Monmouth Junction, NJ, United States) was dissolved in DMSO at 10 mM. Test compounds were diluted in bath solution at the indicated concentrations before the start of measurements.

For the next data set, the target named is T2, Kir6.2/SUR2A (Rattus norvegicus, UniProt P70673).
T2 construct: expressed in transfected cells; host or cells: HEK293T
The data set is described as follows: Inside-out patch clamp on HEK293T excised membrane patches, WT Kir6.2/SUR2A. In kind it is cell-based. The conditions noted are these: for IC50: inside-out patch, HEK293T; for Hill coefficient (outward): outward current. As for the experimental part: as §1, §2
In general terms: The patch-clamp technique gives a direct electrical read-out from membranes.

A further data set addresses T3, Kir6.2 C166S/SUR2A (Rattus norvegicus, UniProt P70673, C166S).
T3 construct: expressed in transfected cells; host or cells: HEK293T
As to the kind of experiment: Inside-out patch clamp, Cantú mutant C166S Kir6.2 with SUR2A. In kind it is cell-based. The following applies: C166S Kir6.2 (homolog of Kir6.1 C176S)/SUR2A, outward current. The procedure: as §1, §2

In data set [1] the test system is Kir6.2/SURx (pancreatic and heart) channels. Also on record: method as in Yu et al., 2012. The conditions noted are these: ref Yu et al., 2012; cited from earlier work.
The next data set deals with Kir1.1. Also on record: method as in Yu et al. (2012). The following applies: ref Yu et al. (2012); cited from earlier work.
The subject of another data set is Kir2.1. Set-up: method as in Yu et al. (2012). The conditions noted are these: ref Yu et al. (2012); cited from earlier work.
The subject of a further data set is vascular Kir6.1/SUR2B. Also on record: method as in Yu et al., 2011. The conditions noted are these: ref Yu et al., 2011; cited from earlier work.
A further data set relates to Kir4.1. Also on record: method as in Yu et al. (2012). The conditions noted are these: ref Yu et al. (2012); cited from earlier work.
Details of data set [2]: method as in Cox et al., 2000. The conditions noted are these: used to treat type II diabetes mellitus; ref Cox et al., 2000; cited from earlier work.
Setting [3] is: outward current component (+50 mV), mean ± SEM, read-out: IC50 outward.

T2 sequence (P70673 whole entry): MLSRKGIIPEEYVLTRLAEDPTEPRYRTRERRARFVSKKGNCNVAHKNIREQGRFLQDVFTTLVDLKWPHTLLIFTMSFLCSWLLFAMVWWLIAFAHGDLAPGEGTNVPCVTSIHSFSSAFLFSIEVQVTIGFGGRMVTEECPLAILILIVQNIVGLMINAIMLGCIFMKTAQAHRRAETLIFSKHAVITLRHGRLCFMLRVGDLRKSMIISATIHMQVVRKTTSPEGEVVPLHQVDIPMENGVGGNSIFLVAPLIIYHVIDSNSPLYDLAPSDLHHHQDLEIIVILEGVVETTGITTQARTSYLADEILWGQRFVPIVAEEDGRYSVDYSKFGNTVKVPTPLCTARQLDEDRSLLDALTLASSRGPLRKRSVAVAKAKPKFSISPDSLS
T2 sequence (Q63563 whole entry partner): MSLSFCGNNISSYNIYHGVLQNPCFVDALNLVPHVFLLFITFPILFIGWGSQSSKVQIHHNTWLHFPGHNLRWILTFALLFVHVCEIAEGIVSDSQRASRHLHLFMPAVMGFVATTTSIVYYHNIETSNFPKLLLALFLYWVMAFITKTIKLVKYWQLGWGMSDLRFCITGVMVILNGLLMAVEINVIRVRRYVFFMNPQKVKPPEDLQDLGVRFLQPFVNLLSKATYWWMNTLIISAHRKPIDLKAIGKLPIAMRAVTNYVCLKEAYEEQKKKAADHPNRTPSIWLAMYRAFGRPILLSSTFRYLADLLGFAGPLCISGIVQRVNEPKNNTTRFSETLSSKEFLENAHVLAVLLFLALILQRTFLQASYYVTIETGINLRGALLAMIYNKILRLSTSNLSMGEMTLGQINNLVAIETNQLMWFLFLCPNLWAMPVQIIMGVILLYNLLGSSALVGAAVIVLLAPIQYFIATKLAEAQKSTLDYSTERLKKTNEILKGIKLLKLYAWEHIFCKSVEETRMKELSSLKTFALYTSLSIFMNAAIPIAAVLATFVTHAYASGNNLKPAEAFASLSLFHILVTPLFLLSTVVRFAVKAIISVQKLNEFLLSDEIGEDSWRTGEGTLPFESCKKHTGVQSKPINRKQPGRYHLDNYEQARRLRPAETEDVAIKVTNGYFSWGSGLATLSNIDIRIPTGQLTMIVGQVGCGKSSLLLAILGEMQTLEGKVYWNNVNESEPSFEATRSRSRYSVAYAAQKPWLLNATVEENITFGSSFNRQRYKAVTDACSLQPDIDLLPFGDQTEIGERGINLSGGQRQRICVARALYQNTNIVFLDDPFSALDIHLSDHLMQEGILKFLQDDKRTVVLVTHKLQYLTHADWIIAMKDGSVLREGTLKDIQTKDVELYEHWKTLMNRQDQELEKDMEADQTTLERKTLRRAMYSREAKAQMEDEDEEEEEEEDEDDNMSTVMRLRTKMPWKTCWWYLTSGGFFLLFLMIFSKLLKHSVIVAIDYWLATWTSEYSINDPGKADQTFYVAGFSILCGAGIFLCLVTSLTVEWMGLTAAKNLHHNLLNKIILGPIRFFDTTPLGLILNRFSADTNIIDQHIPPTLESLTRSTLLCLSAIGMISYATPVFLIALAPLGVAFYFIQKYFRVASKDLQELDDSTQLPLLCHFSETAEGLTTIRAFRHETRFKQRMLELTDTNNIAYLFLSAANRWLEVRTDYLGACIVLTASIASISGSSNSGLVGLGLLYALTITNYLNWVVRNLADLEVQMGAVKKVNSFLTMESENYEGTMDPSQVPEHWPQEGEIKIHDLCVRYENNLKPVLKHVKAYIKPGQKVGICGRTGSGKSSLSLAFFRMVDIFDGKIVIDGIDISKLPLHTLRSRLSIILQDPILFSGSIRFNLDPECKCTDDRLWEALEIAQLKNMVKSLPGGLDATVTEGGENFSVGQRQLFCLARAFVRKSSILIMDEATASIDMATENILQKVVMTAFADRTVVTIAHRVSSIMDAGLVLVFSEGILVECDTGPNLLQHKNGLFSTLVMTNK
T1 sequence (P70673 whole entry, stated change not applied): as the sequence (P70673 whole entry) above
T1 sequence (Q63563 whole entry S1016P partner): as the sequence (Q63563 whole entry partner) above, with S1016P counted along it
T3 sequence (P70673 whole entry C166S): as the sequence (P70673 whole entry) above, with C166S counted along it
T3 sequence (Q63563 whole entry partner): as the sequence (Q63563 whole entry partner) above

Consider `CC(C)NCC(O)COc1ccc(CCOCC2CC2)cc1` (centres unmarked) [Betaxolol], for which the IC50 was determined as 29.5 ± 3.78 µM at Kir6.2/SUR2A S1020P, 22.1 ± 2.47 µM on Kir6.2/SUR2A (setting [3]) and 41.2 ± 2.89 µM on Kir6.2 C166S/SUR2A. Also, on Kir6.2/SUR2A (Hill equation fit), the “Hill coefficient (outward)” value came to 0.89.

With `CN(CCOc1ccc(CC2SC(=O)NC2=O)cc1)c1ccccn1` (centres unmarked) [RSG, 5-[[4-[2-[methyl(pyridin-2-yl)amino]ethoxy]phenyl]methyl]-1,3-thiazolidine-2,4-dione], the IC50 was 45 µM in data set [1]; 25.4 ± 4.24 µM at Kir6.2/SUR2A S1020P; 26 ± 1.49 µM on Kir6.2/SUR2A (setting [3]); 34.9 ± 2.34 µM at Kir6.2 C166S/SUR2A; 10 µM with vascular Kir6.1/SUR2B. For the same molecule, the “sensitivity of channel to drug” value with Kir1.1, with Kir2.1 and in the data set on Kir4.1 was “insensitive” in each case. Besides, in data set [2], the plasma concentrations was roughly 3000 nM.

On to `CC(NCCc1ccc(O)cc1)C(O)c1ccc(O)cc1` (centres unmarked) [Ritodrine], for which the IC50 stood at 6.77 ± 0.49 µM on Kir6.2/SUR2A S1020P, 7.09 ± 0.45 µM at Kir6.2/SUR2A (setting [3]) and 10.4 ± 0.87 µM on Kir6.2 C166S/SUR2A. The “Hill coefficient (outward)” value at Kir6.2/SUR2A (Hill equation fit) turned out to be 0.86.

`CC(C)OC(=O)CCC/C=C\C[C@@H]1[C@@H](/C=C/[C@@H](O)COc2cccc(C(F)(F)F)c2)[C@H](O)C[C@@H]1O` [Travoprost]: the IC50 came out at 11 ± 1.28 µM on Kir6.2/SUR2A S1020P; 2.3 ± 1.26 µM on Kir6.2/SUR2A (inward current component (-80 mV), read-out: IC50 inward); 2.46 ± 0.52 µM on Kir6.2/SUR2A (setting [3]); 14.8 ± 2.16 µM at Kir6.2 C166S/SUR2A. The “Hill coefficient (inward)” value at Kir6.2/SUR2A (inward current, Hill equation fit) was found to be 0.65. For the same molecule, the “Hill coefficient (outward)” value at Kir6.2/SUR2A (Hill equation fit) is reported as 0.71.

The term IC50 denotes the concentration that gives 50% inhibition.
